One series concerns T1, Pepsin.
T1 construct: purchased Merck Millipore
The series can be described thus: Protease stability in simulated gastric fluid (Pepsin-SGF, FaSSGF). The class given is in vitro ADME. Particulars: simulated gastric fluid with pepsin (Pepsin-SGF), 60 min, 1 μM peptide, 37° C., read-out: FaSSGF 60 (min), remaining percent of peptide. The method, boiled down:
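LCMS/MS peak areas, normalised to the time-0 sample as 100%, give percent remaining. Conditions: 37° C incubation of 1 μM final peptide in simulated gastric fluid with pepsin; ethanol/0.1% HCOOH quench at 0, 60, 120, 240 min.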

Another series relates to Pancreatin. The series can be described thus: Protease stability in simulated intestinal fluid (Pancreatin-SIF, FaSSIF). Type of series: in vitro ADME. The following applies: 1 μM peptide, 37° C.; for remaining at 1 h, 1 µM: 60 min, read-out: FaSSIF 60 (min), remaining percent of peptide; for remaining at 2 h, 1 µM: 120 min, read-out: FaSSIF 120 (min), remaining percent of peptide; for remaining at 4 h, 1 µM: 240 min, read-out: FaSSIF 240 (min), remaining percent of peptide. The method, boiled down:
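LC-MS/MS peak areas at 0, 60, 120 and 240 min, normalised to time 0 as 100%, give percent remaining. Reactions used 1 μM final peptide at 37° C in pancreatin-SIF (1 mg pancreatin in 10 mL SIF concentrate) and were stopped with ethanol containing 0.1% HCOOH.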

The nature of series [1]: Solubility testing of peptides at different pH. Particulars: target concentration 1 mg/ml, 2 hours agitation. Type of series: physicochemical. In a few lines:
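Four buffers were used: 50 mM HCl pH 1.2 and 50 mM phosphate at pH 6.5, 7.4 and 9.0, each receiving dried-down compound at a 1 mg/mL target. After 2 h gentle shaking and 0.45 μm filtration, UV peak areas were compared with a DMSO standard curve of known concentration, allowing for extinction coefficients.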

The test system of series [2] is IL-23 induced STAT3 signaling in HEK-Blue™ IL-23 cells. The series can be described thus: IL-23 induced STAT3 signaling in HEK-Blue IL-23 cells (SEAP reporter). Type of series: cell-based. The following applies: human IL23 0.25 ng/ml, read-out: pSTAT3. In a few lines:
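Secreted SEAP, read at OD 620-655 nm after 45 min QUANTI-Blue development, reports STAT3 activation. Beforehand, cells were exposed to peptide dilutions for 60 min at 37 °C and then to 0.25 ng/ml final human IL-23 overnight, at 10,000 cells/well.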

For series [3], the target named is T2, human interleukin-23 receptor (recombinant human IL-23R-Fc chimera) (Homo sapiens, UniProt Q5VWK5).
T2 construct: Fc (IgG Fc fusion)
The series can be described thus: Human ELISA IL23/IL23R (assay for specific human IL23R antagonists). Type of series: binding. The following applies: Table 10; read-out: Human ELISA IL23/IL23R IC50. The method, boiled down:
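Competition format: peptide dilutions compete for IL23R-Fc chimera (0.1 μg/ml final, 60 min, room temperature) binding to immobilized human IL23 coated at […] overnight at 4 °C. Read-out is fluorogenic HRP signal from goat anti-hu-IgG1 detecting captured receptor.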

Setting [4] is: 50 mM HCl buffer, 50 mM HCl pH 1.2, read-out: Solubility Buffer pH 1.2.
The mark [5] stands for this setting: 50 mM phosphate buffer pH 6.5, read-out: Solubility Buffer pH 6.5.
Setting [6] is: 50 mM phosphate buffer pH 7.4, read-out: Solubility Buffer pH 7.4.
Where [7] appears, read: 50 mM phosphate buffer pH 9.0, read-out: Solubility Buffer pH 9.0.

Converted amounts (≈) assume the structure as drawn. Like-named read-outs stand apart in the source and are kept apart here. Starred links: 1 amine or outer side, 2 acyl side, 3 side chain; linkers in the order of their positions; H or OH if unused. Positions of bridges follow the written chain, without caps; N, C: chain ends. Non-standard residues stand in square brackets, D forms with d. Residues, ends and D or L forms follow the SMILES beside them. *: point of attachment. X5 = CN(C(=O)CCC(=O)[*:3])[C@@H](CS[*:2])C(=O)[*:1]; X3 = CN(CCCCC(=O)N[C@@H](CS[*:2])C(=O)[*:1])[*:3]; Trp(7-Me) = Cc1cccc2c(C[C@H](N)C(=O)O)c[nH]c12; X1 = O=C(CCCCN[*:3])N[C@@H](CS[*:2])C(=O)[*:1]; αMeLys(Me2) = CN(C)CCCC[C@](C)(N)C(=O)O; 2Nal = N[C@@H](Cc1ccc2ccccc2c1)C(=O)O; d2Nal = N[C@H](Cc1ccc2ccccc2c1)C(=O)O; 3Pal = N[C@@H](Cc1cccnc1)C(=O)O; Lys(Me) = CNCCCC[C@H](N)C(=O)O; αMeL = CC(C)C[C@](C)(N)C(=O)O; αMeP = C[C@@]1(C(=O)O)CCCN1; Thp = NC1(C(=O)O)CCOCC1; Me2NCH2CH2 = CN(C)CC*; Aib = CC(C)(N)C(=O)O; Ava = NCCCCC(=O)O; Sar = CNCC(=O)O Bounds are passed on as bounds.

Usually fraction remaining stands for what is left of the initial amount, in per cent. As a reminder, the solubility is the dissolved amount per volume that the medium holds. On to `CC(=O)NCCCC[C@@H]1NC(=O)[C@H](Cc2c[nH]c3c(C)cccc23)NC(=O)[C@H]([C@@H](C)O)NC(=O)[C@H](CC(N)=O)NC(=O)[C@@H]2CSSC[C@H](NC1=O)C(=O)N[C@@H](Cc1ccc(OCCN(C)C)cc1)C(=O)N[C@@H](Cc1ccc3ccccc3c1)C(=O)NC1(CCOCC1)C(=O)N[C@H](C(=O)N[C@@H](CC(N)=O)C(=O)N[C@@H](Cc1c[nH]cn1)C(=O)N1CCC[C@@]1(C)C(N)=O)CCC(=O)NCCCCC(=O)N2` [compound 55] ([Ava]CNT[Trp(7-Me)]K(Ac)CY(Me2NCH2CH2)[2Nal][Thp]ENH[αMeP]-NH2; disulfide 2-7; lactam N-11), for which the amount remaining at 1 h, 1 µM in the series on Pepsin is 91%; in the series on Pancreatin it was 89%. In the series on Pancreatin, the amount remaining at 2 h, 1 µM is 80%. For the same compound, the amount remaining at 4 h, 1 µM in the series on Pancreatin is 82%. Further, the solubility at 2 h in series [1] (setting [4]) was not below 1110 µg/mL; in series [1] (setting [5]), not below 1040 µg/mL; in series [1] (setting [6]), not below 960 µg/mL. Besides, the IC50 in series [2] stood at 0.95 nM; in series [3] it was 0.4 nM.
`CC(=O)NCCCC[C@@H]1NC(=O)[C@H](Cc2c[nH]c3c(C)cccc23)NC(=O)[C@H]([C@@H](C)O)NC(=O)[C@H](CC(N)=O)NC(=O)[C@@H]2CSSC[C@H](NC1=O)C(=O)N[C@@H](Cc1ccc(OCCN(C)C)cc1)C(=O)N[C@@H](Cc1ccc3ccccc3c1)C(=O)NC1(CCOCC1)C(=O)N[C@H](C(=O)N[C@@H](CO)C(=O)N[C@@H](Cc1cccnc1)C(=O)N(C)CC(N)=O)CCC(=O)NCCCCC(=O)N2` [compound 56] ([Ava]CNT[Trp(7-Me)]K(Ac)CY(Me2NCH2CH2)[2Nal][Thp]ES[3Pal][Sar]-NH2; disulfide 2-7; lactam N-11): the share remaining at 1 h, 1 µM in the series on Pepsin was 86%; in the series with Pancreatin, 90%. Further, the amount remaining at 2 h, 1 µM with Pancreatin is 76%. Moreover, in the series on Pancreatin, the share remaining at 4 h, 1 µM is 77%. The results for the solubility at 2 h in series [1] (setting [4]), in series [1] (setting [5]) and in series [1] (setting [6]) were not below 1090 µg/mL, not below 920 µg/mL and not below 1030 µg/mL, respectively. Moreover, the results for the IC50 in series [2] and in series [3] were 0.16 nM and 0.57 nM, respectively.
Turning to `CC(=O)NCCCC[C@@H]1NC(=O)[C@H](Cc2c[nH]c3ccccc23)NC(=O)[C@@H](NC(C)=O)CCCCNC(=O)[C@@H]2CSSC[C@H](NC1=O)C(=O)N[C@@H](Cc1ccc(OCCN(C)C)cc1)C(=O)N[C@H](Cc1ccc3ccccc3c1)C(=O)N[C@@](C)(CCCCN(C)C)C(=O)N[C@H](C(=O)N[C@@H](CC(N)=O)C(=O)N[C@@H](Cc1cccnc1)C(=O)N(C)CC(N)=O)CCC(=O)NCCCCC(=O)N2` [compound 59] (Ac-KWK(Ac)CY(Me2NCH2CH2)[d2Nal][αMeLys(Me2)]EN[3Pal][Sar]-NH2; linker 1-4-8 via X1), the fraction remaining at 1 h, 1 µM was 77% with Pepsin and 98% in the series on Pancreatin. Moreover, the fraction remaining at 2 h, 1 µM with Pancreatin is 97%. Moreover, in the series with Pancreatin, the amount remaining at 4 h, 1 µM was 97%. Besides, the solubility at 2 h is not below 1090 µg/mL in series [1] (setting [4]), not below 1030 µg/mL in series [1] (setting [5]) and not below 1090 µg/mL in series [1] (setting [6]). For the same compound, the IC50 came to 0.07 nM in series [2] and 0.24 nM in series [3].
As for `CC(=O)NCCCC[C@@H]1NC(=O)[C@H](Cc2c[nH]c3c(C)cccc23)NC(=O)[C@@H](NC(C)=O)CCCCNC(=O)[C@@H]2CSSC[C@H](NC1=O)C(=O)N[C@@H](Cc1ccc(OCCN(C)C)cc1)C(=O)N[C@@H](Cc1ccc3ccccc3c1)C(=O)NC(C)(C)C(=O)N[C@H](C(=O)N[C@@H](CC(N)=O)C(=O)N[C@@H](Cc1c[nH]cn1)C(N)=O)CCC(=O)N(C)CCCCC(=O)N2` [compound 60] (Ac-K[Trp(7-Me)]K(Ac)CY(Me2NCH2CH2)[2Nal][Aib]ENH-NH2; linker 1-4-8 via X3), the share remaining at 1 h, 1 µM in the series on Pepsin was 68%; in the series on Pancreatin, 99%. Moreover, in the series with Pancreatin, the share remaining at 2 h, 1 µM is 91%. Moreover, in the series on Pancreatin, the share remaining at 4 h, 1 µM was 91%. The solubility at 2 h in series [1] (setting [4]) is not below 1020 µg/mL; in series [1] (setting [5]) it was not below 1000 µg/mL; in series [1] (setting [6]), not below 930 µg/mL. The IC50 in series [2] was determined as 0.16 nM; in series [3], 0.21 nM.
Regarding `Cc1cccc2c(C[C@@H]3NC(=O)[C@H]([C@@H](C)O)NC(=O)[C@H](CC(N)=O)NC(=O)[C@@H]4CSSC[C@H](NC(=O)[C@H](CCC(N)=O)NC3=O)C(=O)N[C@@H](Cc3ccc(OCCN(C)C)cc3)C(=O)N[C@@H](Cc3ccc5ccccc5c3)C(=O)N[C@@](C)(CC(C)C)C(=O)N[C@H](C(=O)N[C@@H](CC(N)=O)C(=O)N[C@@H](Cc3cccnc3)C(=O)N(C)CC(N)=O)CCC(=O)NCCCCC(=O)N4)c[nH]c12` [compound 63] ([Ava]CNT[Trp(7-Me)]QCY(Me2NCH2CH2)[2Nal][αMeL]EN[3Pal][Sar]-NH2; disulfide 2-7; lactam N-11), the fraction remaining at 1 h, 1 µM in the series with Pepsin is 95%; in the series on Pancreatin, 90%. Moreover, the fraction remaining at 2 h, 1 µM in the series with Pancreatin was 86%. Moreover, the amount remaining at 4 h, 1 µM with Pancreatin is 81%. Moreover, the solubility at 2 h in series [1] (setting [4]) is not below 910 µg/mL; in series [1] (setting [5]), not below 980 µg/mL; in series [1] (setting [6]), not below 910 µg/mL. Further, the IC50 in series [2] turned out to be 0.2 nM; in series [3] it was 0.41 nM.
In the case of `CC(=O)NCCCC[C@@H]1NC(=O)[C@H](Cc2c[nH]c3c(C)cccc23)NC(=O)[C@@H](NC(C)=O)CCCCNC(=O)[C@@H]2CSSC[C@H](NC1=O)C(=O)N[C@@H](Cc1ccc(OCCN(C)C)cc1)C(=O)N[C@@H](Cc1ccc3ccccc3c1)C(=O)NC1(CCOCC1)C(=O)N[C@H](C(=O)N[C@@H](CC(N)=O)C(=O)N[C@@H](Cc1cccnc1)C(=O)N(C)CC(N)=O)CCC(=O)NCCCCC(=O)N2` [compound 66] (Ac-K[Trp(7-Me)]K(Ac)CY(Me2NCH2CH2)[2Nal][Thp]EN[3Pal][Sar]-NH2; linker 1-4-8 via X1), the share remaining at 1 h, 1 µM in the series on Pepsin and in the series with Pancreatin was 94% throughout. The share remaining at 2 h, 1 µM in the series on Pancreatin was 94%. In addition, in the series on Pancreatin, the amount remaining at 4 h, 1 µM is 88%. Also, the solubility at 2 h is not below 1630 µg/mL in series [1] (setting [4]), not below 1040 µg/mL in series [1] (setting [5]), not below 1290 µg/mL in series [1] (setting [6]) and not below 1130 µg/mL in series [1] (setting [7]). In addition, the IC50 in series [2] stood at 0.15 nM; in series [3], 0.52 nM.
On to `CC(=O)NCCCC[C@@H]1NC(=O)[C@H](Cc2c[nH]c3c(C)cccc23)NC(=O)[C@@H](NC(C)=O)CCCCNC(=O)[C@@H]2CSSC[C@H](NC1=O)C(=O)N[C@@H](Cc1ccc(OCCN(C)C)cc1)C(=O)N[C@@H](Cc1ccc3ccccc3c1)C(=O)NC1(CCOCC1)C(=O)N[C@H](C(=O)N[C@@H](CC(N)=O)C(=O)N[C@@H](Cc1cccnc1)C(=O)N(C)CC(N)=O)CCCCN(C)C(=O)CCC(=O)N2C` [compound 74] (Ac-K[Trp(7-Me)]K(Ac)CY(Me2NCH2CH2)[2Nal][Thp][Lys(Me)]N[3Pal][Sar]-NH2; linker 1-4-8 via X5), for which the fraction remaining at 1 h, 1 µM was 92% in the series on Pepsin and 87% with Pancreatin. For the same compound, the fraction remaining at 2 h, 1 µM in the series on Pancreatin was 84%. Also, the fraction remaining at 4 h, 1 µM with Pancreatin was 78%. Also, the solubility at 2 h is not below 1390 µg/mL in series [1] (setting [4]), not below 980 µg/mL in series [1] (setting [5]), 330 µg/mL (≈ 174 µM) in series [1] (setting [6]) and 180 µg/mL (≈ 95.1 µM) in series [1] (setting [7]). In addition, the IC50 in series [2] turned out to be 0.12 nM; in series [3] it was 0.54 nM.

(Values after patent US20260258084A1, “New Peptides as Selective IL-23 Receptor Antagonists” (Sanofi, priority 2022, published 2026).)
